Results from US20120076757A1, “COMPOSITION FOR TRANSMUCOSAL DELIVERY OF POLYPEPTIDES” (Cephalon, Inc., priority 2007, published 2012).
Each block holds one molecule with its values, some of them ahead of it.

Experiments:
[1] = system: cultured human buccal carcinoma cells (SqCC/Y1 cells)
Procedure: (§1) In vitro permeability testing was conducted as follows. Starting with acrylic inserts having one end sealed with 0.6 cm square area inserts of acrylic and polycarbonate membranes without cells, the cultured human buccal carcinoma cells (SqCC/Y1 cells) were grown on the membrane surface in culture medium for a period of 24 hours. The culture medium was removed from the top of the insert (“air-lifting” process), wherein the cells continued to receive nutrients from the culture medium beneath the inserts. Under these conditions, the cells were grown for a period of 7 to 10 days so as to grow the cells to multilayer confluence on the polycarbonate membrane, thereby increasing cellular density to a multi-layer, tissue-like barrier resembling that of buccal mucosal tissue.
(§2) The assay was performed by rinsing the inserts with Krebs-Ringer buffer solution without sodium bicarbonate (KRB) and inspecting for uniformity by measuring the transepithelial electrical resistance (TEER). When the average electrical resistance necessary was 350 ohms or greater, the inserts were selected for permeability testing, thereby ensuring consistent permeability barrier thickness and distribution.
(§3) The inserts were separated into the groups (e.g., n=3) with closely similar average TEER values (of the group) to be used in testing particular formulations of active pharmaceutical ingredients (i.e., polypeptide). For a given bile salt, for example, the sample groups were as follows: • 1) polypeptide alone; • 2) polypeptide in combination with bile salt; • 3) polypeptide in combination with effervescent excipient composition (Excipient Formula 1) powder; • 4) polypeptide in combination with bile salt (varying concentrations) and effervescent excipient composition (Excipient Formula 1) powder.
(§4) The inserts were placed into cell culture wells with a defined volume of KRB and incubated at 37° C. on shaker tables set at 100 rpm. Thus, the cells were exposed to the given active ingredient (polypeptide) without and in combination with the various excipient formulations described.
(§5) Samples were removed from the basolateral fluid every 10 minutes for a period of one hour, and the removed fluid was replaced with an equal volume of KRB. At the end of the hour, the residual fluid within the insert was recovered and stored, the insert was rinsed with KRB, and the TEER value again measured. The TEER differences between the starting step TEER and final step TEER were recorded.
(§6) The samples from the basolateral wells were analyzed for the active ingredient (polypeptide) using various techniques. The amount of active in the well was calculated and corrected for sampling loss.
(§7) Enhancement Ratio (ER) is equal to the ratio of the Papp with absorption enhancer divided by the Papp without absorption enhancer. Thus, this technique was used for each of the proposed permeability enhancement compositions below.
(§8) The permeability of fluorescently-labeled polypeptide with and without enhancement was measured by the in vitro permeability assay. The amount of polypeptide permeating through the cells/tissue into the basolateral fluid was measured and the apparent permeability coefficient (Papp) for each polypeptide sample was calculated.

[2] = Anaesthetized dog model, desmopressin oral transmucosal (buccal) permeation, serum by LC/MS/MS; assay type: in vivo
Source text: Anesthetized dog models were used to evaluate transmucosal permeation of polypeptide compositions prepared in accordance with the invention. Mature mongrel large-breed (15-35 kg) dogs were screened for medical conditions to qualify. For testing, the dogs were anaesthetized, placed on their right or left side, and cannulated via the cephalic vein. A Teflon ring was attached to the buccal mucosa in a horizontal position to form a reservoir. Biologically active polypeptides to be evaluated were deposited, with or without enhancer components, onto the buccal mucosa surrounded by the ring. Depending upon the experiment, active polypeptides were deposited in the form of solution, dry powder or solid dosage form (tablet). Blood samples were taken every 10 minutes for a period of 2 hours, with additional samples taken up to 4 hours depending upon the protocol. The active-containing compositions were removed from the reservoir at 60 minutes and the reservoir rinsed twice.
At 2 hours, the dog is removed from anesthesia and the ring is removed from its buccal mucosa. Following recovery from anesthesia, subsequent blood samples are taken from the awake dogs. Blood samples are allowed to clot, the serum is separated by centrifugation, and the serum is frozen at −20° or −80° C., depending upon the protocol until analyzed for the active polypeptide content.
Desmopressin (deamino-Cysl-D-Arg Vasopressin, or D-Arg Vasopresin) was tested for buccal permeation into the blood stream by various administration forms: solution, powder, and compressed tablet.
Desmopressin-containing tablets for the experiment were prepared by combining 200 mg of effervescent formulation described in Example 1A (EF 1) with 20 mg sodium taurocholate. This mixture was added directly into a vial of lyophilized desmopressin. […]
Tablets prepared accordingly were tested in dogs per protocol described above. […] Desmopres sin was measured using LC/MS/MS analysis o the serum samples.

[3] = Anaesthetized dog model, salmon calcitonin oral transmucosal permeation from effervescent tablets; assay type: in vivo; details: adding 2.5% NaTC or more to the effervescent formulation
Source text: Anesthetized dog models were used to evaluate transmucosal permeation of polypeptide compositions prepared in accordance with the invention. Mature mongrel large-breed (15-35 kg) dogs were screened for medical conditions to qualify. For testing, the dogs were anaesthetized, placed on their right or left side, and cannulated via the cephalic vein. A Teflon ring was attached to the buccal mucosa in a horizontal position to form a reservoir. Biologically active polypeptides to be evaluated were deposited, with or without enhancer components, onto the buccal mucosa surrounded by the ring. Depending upon the experiment, active polypeptides were deposited in the form of solution, dry powder or solid dosage form (tablet). […]
At 2 hours, the dog is removed from anesthesia and the ring is removed from its buccal mucosa. […] Blood samples are allowed to clot, the serum is separated by centrifugation, and the serum is frozen at −20° or −80° C., depending upon the protocol until analyzed for the active polypeptide content.
Salmon calcitonin (s-Ct) was tested for buccal permeation into the blood stream of anesthetized dogs with effervescent compressed tablets containing s-Ct and the bile salt (sodium taurocholate) at 0%, 2.5%, 5.0%, and 10% bile salt. […] The following table contains the formulation information of the tablets evaluated. […]

[4] = system: cultured human buccal carcinoma cells (SqCC/Y1 cells); assay: In vitro permeability assay (apparent permeability coefficient Papp across multilayer buccal cell culture); details: ELISA
Procedure: as §1, §2, §3, §4, §5, §6, §7, §8

[5] = INTRON A acquired from Schering Corp.; cited from earlier work
[6] = with bile salt (sodium taurocholate) alone

transport/permeation of the polypeptide across the mucosal tissue in the in vivo model ([2]; desmopressin with combination of bile salt and effervescent formulation): appears to appreciably enhance
Molecule: NC(=O)CC[C@@H]1NC(=O)[C@H](Cc2ccccc2)NC(=O)[C@H](Cc2ccc(O)cc2)NC(=O)CCSSC[C@@H](C(=O)N2CCC[C@H]2C(=O)N[C@H](CCCN=C(N)N)C(=O)NCC(N)=O)NC(=O)[C@H](CC(N)=O)NC1=O [Desmopressin, deamino-Cysl-D-Arg Vasopressin]
in vitro permeation of desmopressin across mucosal tissue (Papp) [1]: does not appear to appreciably increase polypeptide permeation
in vitro transport/permeability of desmopressin across mucosal tissue (Papp) [1]: appears to exhibit appreciable enhancement
permeation of the polypeptide across the mucosal tissue in the in vivo model ([2]; desmopressin in combination with the bile salt alone): does not appear to appreciably increase the permeation
permeation of the polypeptide across the mucosal tissue in the in vivo model ([2]; desmopressin with the effervescent formulations alone): does not appear to appreciably increase the permeation

transmucosal permeability of s-Ct in anesthetized dogs [3]: large improvement in permeability
Molecule: CC(C)C[C@H](NC(=O)[C@H](CCCCN)NC(=O)CNC(=O)[C@H](CC(C)C)NC(=O)[C@@H](NC(=O)[C@@H]1CSSC[C@H](N)C(=O)N[C@@H](CO)C(=O)N[C@@H](CC(N)=O)C(=O)N[C@@H](CC(C)C)C(=O)N[C@@H](CO)C(=O)N[C@@H]([C@@H](C)O)C(=O)N1)C(C)C)C(=O)N[C@@H](CO)C(=O)N[C@@H](CCC(N)=O)C(=O)N[C@@H](CCC(=O)O)C(=O)N[C@@H](CC(C)C)C(=O)N[C@@H](Cc1c[nH]cn1)C(=O)N[C@@H](CCCCN)C(=O)N[C@@H](CC(C)C)C(=O)N[C@@H](CCC(N)=O)C(=O)N[C@H](C(=O)N[C@@H](Cc1ccc(O)cc1)C(=O)N1CCC[C@H]1C(=O)N[C@@H](CCCNC(=N)N)C(=O)N[C@H](C(=O)N[C@@H](CC(N)=O)C(=O)N[C@H](C(=O)NCC(=O)N[C@@H](CO)C(=O)NCC(=O)N[C@H](C(=O)N1CCC[C@H]1C(N)=O)[C@@H](C)O)[C@@H](C)O)[C@@H](C)O)[C@@H](C)O [s-CT]
permeation result of combination compared with individual effects ([4]; s-CT + taurocholate + EF 2): greater than the sum of the individual permeation effects
in vitro permeation of s-CT across mucosal tissue (Papp) ([4]; with EF 2 alone): does not appear to exhibit an increase in permeation
in vitro permeation of s-CT across mucosal tissue (Papp) [4, 6]: does not appear to exhibit an increase in permeation
in vitro permeation/transport of s-CT across mucosal tissue (Papp) ([4]; with effervescent formulation (EF 2) and 1% or 2% bile salt): does appear to exhibit appreciably enhanced permeation/transport

Molecule: IFNα
specific activity [5]: 260 million IU per mg protein
permeation result of combination compared with individual effects ([4]; IFNα + taurocholate + EF 1): greater than the sum of the individual permeation effects
in vitro permeation of IFNα across mucosal tissue (Papp) ([4]; with 1% or 2% bile salt and effervescent composition (EF 1)): does appears to produce appreciable enhancement
in vitro permeation of IFNα across mucosal tissue (Papp) ([4]; with EF 1 alone): does not appear to appreciably increase the permeation
in vitro permeation of IFNα across mucosal tissue (Papp) ([4]; with bile salt alone): does not appear to appreciably increase the permeation

Molecule: IGF-1: Insulin-like Growth Factor-1, 70 amino acids with 3 internal disulfide bonds
permeation result of combination compared with individual effects ([4]; IGF-1 + taurocholate + EF2): greater than the sum of the individual permeation effects
in vitro permeation of IGF-1 across mucosal tissue (Papp) ([4]; with EF 2 alone): does not appear to exhibit an increase in permeation
in vitro permeation/transport of IGF-1 across mucosal tissue (Papp) ([4]; with EF2 and 1% bile salt): appears to exhibit enhanced permeation/transport
in vitro permeation of IGF-1 across mucosal tissue (Papp) [4, 6]: does not appear to exhibit an increase in permeation
